Laboratory results: ChEMBL document CHEMBL1201862, “PubChem BioAssay data set” (2004)
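1) Cells in 96-well plates. 2) Compound, 48 h, 5 concentrations. 3) Linear interpolation between surrounding doses. 4) Unreached endpoint = highest concentration. The concentration for 50% growth inhibition is given as GI50.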 The source made the active and inactive calls. Rule as the data show it: active = GI50 up to about 1.1 µM and inactive = higher.

Assays:
Test in all cases: NCI-60 cell line screen, 48 h
[1] = test system: RPMI-8226
[2] = test system: SR
[3] = test system: IGROV-1
[4] = test system: UACC-62
[5] = test system: OVCAR-5
[6] = test system: RXF 393
[7] = test system: UO-31
[8] = test system: SF-295
[9] = test system: A498
[10] = test system: Malme-3M
[11] = test system: NCI-H460
[12] = test system: SK-MEL-2
[13] = test system: COLO 205
[14] = test system: NCI-H226
[15] = test system: SK-OV-3
[16] = test system: MCF7
[17] = test system: MDA-N
[18] = test system: Hs-578T

Measured: GI50

CCCCC(C)C(OC(=O)CC(CC(=O)O)C(=O)O)C(CC(C)CC(O)CCCCC(O)CC(O)C(C)N)OC(=O)CC(CC(=O)O)C(=O)O (centres undefined)
inactive: [1] > 100 µM | [2] > 100 µM | [3] > 100 µM | [4] > 100 µM | [5] > 100 µM | [6] > 48.8 µM | [7] > 100 µM | [8] > 100 µM | [9] > 100 µM | [10] > 100 µM | [11] > 100 µM | [12] > 100 µM | [13] > 100 µM | [14] > 100 µM | [15] > 100 µM

N#CCC(=O)NC1C2CC3CC(C2)CC1C3 (centres undefined)
inactive: [1] 34.6 µM | [3] 25.4 µM | [4] 15.1 µM | [5] 22.1 µM | [6] 15.8 µM | [7] 49 µM | [8] 16.7 µM | [9] 16.5 µM | [10] 20.3 µM | [11] 16.7 µM | [12] 19.5 µM | [13] 19.3 µM | [14] 22.2 µM | [15] 37.4 µM

O=c1[nH]c(=O)n(COCCO)c2ccc(Br)cc12
inactive: [2] 80.4 µM | [3] 77.1 µM | [16] > 100 µM | [4] > 100 µM | [5] > 100 µM | [6] > 100 µM | [7] 74.3 µM | [8] > 100 µM | [9] > 100 µM | [11] > 100 µM | [17] > 100 µM | [12] > 100 µM | [13] > 100 µM | [14] 25.2 µM | [15] > 100 µM

C/C(CC(=O)Nc1cccc([N+](=O)[O-])c1)=N/NC(N)=S
inactive: [1] > 100 µM | [3] > 100 µM | [4] > 100 µM | [5] > 100 µM | [6] > 100 µM | [7] > 100 µM | [8] > 100 µM | [10] > 100 µM | [11] > 100 µM | [12] > 100 µM | [13] > 100 µM | [14] > 100 µM | [15] > 100 µM

Cc1c(C(=O)C(=O)c2ccccc2)c(C)c(C(=O)C(=O)c2ccccc2)c(C)c1C(=O)C(=O)c1ccccc1
inactive: [1] > 100 µM | [2] > 100 µM | [3] > 100 µM | [16] > 100 µM | [5] > 100 µM | [7] > 100 µM | [8] > 100 µM | [11] > 100 µM | [17] > 100 µM | [13] > 100 µM | [18] > 100 µM | [15] > 100 µM

N#Cc1c(CC(=O)O)cc(=O)n2c1[nH]c1ccccc12
inactive: [1] > 100 µM | [2] > 100 µM | [3] > 100 µM | [5] > 100 µM | [6] > 100 µM | [7] > 100 µM | [8] > 100 µM | [9] > 100 µM | [10] > 100 µM | [11] > 100 µM | [12] > 100 µM | [13] > 100 µM | [14] > 100 µM | [15] > 100 µM

CN1C(=O)CC(c2cccc(C3CC(=O)N(C)C3=O)n2)C1=O (centres undefined)
inactive: [2] > 100 µM | [3] > 100 µM | [4] > 100 µM | [5] > 100 µM | [6] > 100 µM | [7] > 100 µM | [8] > 100 µM | [9] > 100 µM | [10] > 100 µM | [11] > 100 µM | [12] > 100 µM | [13] > 100 µM | [14] > 100 µM | [15] > 100 µM

CCOC(=O)c1ccc(NC(=O)O/N=C(/Cl)CCl)cc1
inactive: [1] 47.2 µM | [2] 27.2 µM | [3] > 100 µM | [16] 34.8 µM | [5] 86.7 µM | [7] 45 µM | [8] 30.8 µM | [9] 15.2 µM | [10] 81.1 µM | [11] 47.9 µM | [17] 37.8 µM | [12] 60.5 µM | [13] 39.6 µM | [18] > 100 µM | [15] 75.3 µM

CC(=O)NNc1nc(C)c(C(/C=C/c2ccc(/C=C/C(=N\NC(=O)c3ccncc3)c3sc(NNC(C)=O)nc3C)cc2)=N/NC(=O)c2ccncc2)s1
inactive: [1] > 100 µM | [3] > 100 µM | [4] > 100 µM | [5] > 100 µM | [6] > 100 µM | [7] > 100 µM | [8] > 100 µM | [9] > 100 µM | [10] > 100 µM | [11] > 100 µM | [12] > 100 µM | [13] > 100 µM | [14] > 100 µM | [15] > 100 µM

O=C1c2ccccc2C(=O)c2cc3c(cc21)C[S+]([O-])C3
inactive: [1] > 100 µM | [3] > 100 µM | [4] > 100 µM | [5] > 100 µM | [6] > 100 µM | [7] > 100 µM | [8] > 100 µM | [10] > 100 µM | [11] > 100 µM | [12] > 100 µM | [13] > 100 µM | [15] > 100 µM

COc1ccc(/C=C2\N=C3NC(=O)C(N4CCCCC4)=C(N)N3C2=O)cc1
inactive: [1] > 100 µM | [2] > 100 µM | [3] > 100 µM | [16] > 100 µM | [5] > 100 µM | [6] > 100 µM | [7] > 100 µM | [8] 73.6 µM | [9] > 100 µM | [10] > 100 µM | [17] > 100 µM | [13] > 100 µM | [18] 47.5 µM | [14] > 100 µM | [15] > 100 µM

CC1CN=C(N(C(=O)Nc2ccccc2)c2ccccc2)S1 (centres undefined)
inactive: [1] 26 µM | [2] 27.2 µM | [3] 42.6 µM | [16] 8.99 µM | [5] 90.4 µM | [7] 38.4 µM | [8] 37.9 µM | [9] 10.6 µM | [10] 23 µM | [11] 30.1 µM | [17] 24.1 µM | [12] 20.8 µM | [13] 59.3 µM | [18] 42.5 µM | [15] > 100 µM

COc1cc(OC)c(OC)cc1/C=C/c1nc2ccccc2s1
inactive: [1] 31 µM | [3] > 100 µM | [16] 82.4 µM | [5] > 100 µM | [6] 23.3 µM | [7] 47.2 µM | [8] 67 µM | [9] 86.5 µM | [10] > 100 µM | [11] > 100 µM | [17] 17.5 µM | [12] > 100 µM | [13] > 100 µM | [18] 67 µM | [14] > 100 µM | [15] > 100 µM
